{
  "source": "patent US20220372033A1",
  "about": "“ANTIBACTERIAL COMPOUNDS” (Janssen Sciences Ireland Unlimited Company, priority 2019, published 2022)",
  "key": {"[1]": {"system": "Mycobacterium tuberculosis strain H37Rv ΔctaE-ΔqcrCAB", "assay": "microbe, parasite or virus in culture", "type": "cell-based", "conditions": "240 h"}, "[2]": {"system": "Mitochondrial toxicity (Glu/Gal)", "assay": "Mitochondrial toxicity (Glu/Gal) assay", "type": "cell-based", "conditions": "for Mitotoxicity Score: Glu/Gal assay, <3 indicates no mitotoxicity alerts", "description": "(§1) The compounds of the invention/examples may have advantages associated with in vitro potency, kill kinetics (i.e. bactericidal effect) in vitro, PK properties, food effect, safety/toxicity (including liver toxicity, coagulation, 5-LO oxygenase), metabolic stability, Ames II negativity, MNT negativity, aqueous based solubility (and ability to formulate) and/or cardiovascular effect e.g. on animals (e.g. anesthetized guinea pig). The data below that was generated/calculated may be obtained using standard methods/assays, for instance that are available in the literature or which may be performed by a supplier (e.g. Microsomal Stability Assay—Cyprotex, Mitochondrial toxicity (Glu/Gal) assay—Cyprotex, as well as literature CYP cocktail inhibition assays).\nCompounds of the invention/examples, may therefore have the advantage that: • No in vitro cardiotoxicity is observed (for example either due to the CVS results or due to the Glu/Gal assay results, for instance low mitotoxicity (<3 in the Glu/Gal assay indicates no mitotoxicity alerts); and/or • No reactive metabolite formation is observed (e.g. GSH);"}, "rCaCH": {"system": "rCaCH", "assay": "Cardio tox rCaCH", "conditions": "read-out: Cardio tox rCaCH (pIC50) (converted)", "description": "as §1"}, "rNaCH": {"system": "rNaCH", "assay": "Cardio tox rNaCH", "description": "as §1"}, "hERG(DOF)": {"biological_target": "hERG(DOF) (Homo sapiens, UniProt Q12809)", "sequence (Q12809 whole entry)": "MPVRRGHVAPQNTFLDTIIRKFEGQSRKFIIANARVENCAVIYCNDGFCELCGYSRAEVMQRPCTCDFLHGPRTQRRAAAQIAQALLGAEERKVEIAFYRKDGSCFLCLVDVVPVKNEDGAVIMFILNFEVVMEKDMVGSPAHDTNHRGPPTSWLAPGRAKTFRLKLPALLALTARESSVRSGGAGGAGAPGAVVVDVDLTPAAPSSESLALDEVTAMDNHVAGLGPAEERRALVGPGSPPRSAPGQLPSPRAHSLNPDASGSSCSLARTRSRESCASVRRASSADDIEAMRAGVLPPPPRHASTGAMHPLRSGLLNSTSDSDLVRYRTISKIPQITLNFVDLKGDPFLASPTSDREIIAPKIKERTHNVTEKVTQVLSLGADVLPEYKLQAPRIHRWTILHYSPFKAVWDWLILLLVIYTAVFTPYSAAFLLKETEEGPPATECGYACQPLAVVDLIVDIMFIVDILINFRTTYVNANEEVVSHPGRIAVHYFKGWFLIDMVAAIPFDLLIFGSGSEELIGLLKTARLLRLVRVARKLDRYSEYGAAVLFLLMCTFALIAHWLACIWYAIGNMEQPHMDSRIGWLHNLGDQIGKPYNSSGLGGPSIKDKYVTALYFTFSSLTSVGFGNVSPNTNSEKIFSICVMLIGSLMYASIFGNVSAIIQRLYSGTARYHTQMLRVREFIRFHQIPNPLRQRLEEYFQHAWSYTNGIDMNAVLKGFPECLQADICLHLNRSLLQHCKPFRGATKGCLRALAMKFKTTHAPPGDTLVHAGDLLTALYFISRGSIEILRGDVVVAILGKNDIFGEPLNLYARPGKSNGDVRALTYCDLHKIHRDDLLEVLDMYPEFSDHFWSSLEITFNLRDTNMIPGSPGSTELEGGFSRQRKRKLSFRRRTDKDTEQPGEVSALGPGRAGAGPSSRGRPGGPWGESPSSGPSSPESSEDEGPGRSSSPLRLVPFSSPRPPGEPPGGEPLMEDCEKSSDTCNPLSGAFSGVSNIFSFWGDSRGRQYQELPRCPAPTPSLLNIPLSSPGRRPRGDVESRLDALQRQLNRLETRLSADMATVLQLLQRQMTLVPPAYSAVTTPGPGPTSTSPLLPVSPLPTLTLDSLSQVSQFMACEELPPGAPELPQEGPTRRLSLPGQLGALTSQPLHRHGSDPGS", "assay": "Cardio tox hERG(DOF)", "description": "as §1"}, "[3]": {"system": "Mycobacterium tuberculosis (Mtb) bacilli, strain H37Ra", "assay": "Phenotypic assay of O2 consumption rate (OCR), Test 4, Seahorse XFe96, with Compound X", "conditions": "after Compound X 0.9 μM, test compound 10 μM and uncoupler CCCP 1 μM"}},
  "note": "Where “and” joins values, the source holds several entries; their conditions need not be identical. Equal entries are not always repeated. Where two headings read alike, the source gives them in different places.",
  "data": [
    {"smiles": "Cc1c(-c2ccc3cc(-c4cccc(OC(F)(F)F)c4)nn3c2)[nH]c2ccccc2c1=O", "note": "[Compound 1]", "values": [
      {"measurement": "IC50", "setting": "[1]", "value": 27.8, "unit": "µM"},
      {"measurement": "Mitotoxicity Score", "setting": "[2]", "value": "positive"},
      {"measurement": "IC50", "setting": "rCaCH", "value": 3.5, "unit": "µM"},
      {"measurement": "IC50", "setting": "rNaCH", "value": 3.02, "unit": "µM"},
      {"measurement": "IC50", "setting": "hERG(DOF)", "value": 3.98, "unit": "µM"},
      {"measurement": "melting point", "value": 243.7, "unit": "°C"},
      {"measurement": "(ii) % OCR after cccp", "setting": "[3]", "value": 93.2, "unit": "%"}
    ]},
    {"smiles": "Cc1c(-c2ccc3nc(Cc4ccc(OC(F)(F)F)cc4)cn3c2)[nH]c2ccccc2c1=O", "note": "[Compound 2]", "values": [
      {"measurement": "IC50", "setting": "[1]", "value": 91.8, "unit": "µM"},
      {"measurement": "Mitotoxicity Score", "setting": "[2]", "value": "positive"},
      {"measurement": "IC50", "setting": "rCaCH", "value": "> 10", "unit": "µM"},
      {"measurement": "IC50", "setting": "rNaCH", "value": 2.6, "unit": "µM"},
      {"measurement": "IC50", "setting": "hERG(DOF)", "value": 1.8, "unit": "µM"},
      {"measurement": "melting point", "value": 244.8, "unit": "°C"},
      {"measurement": "(ii) % OCR after cccp", "setting": "[3]", "value": 112.0, "unit": "%"}
    ]},
    {"smiles": "Cc1c(-c2ccc3cc(-c4cccc(OC(F)(F)F)c4)cn3c2)[nH]c2ccccc2c1=O", "note": "[Compound 3]", "values": [
      {"measurement": "IC50", "setting": "[1]", "value": "> 100", "unit": "µM"},
      {"measurement": "Mitotoxicity Score", "setting": "[2]", "value": "negative"},
      {"measurement": "IC50", "setting": "rCaCH", "value": "> 10", "unit": "µM"},
      {"measurement": "IC50", "setting": "rNaCH", "value": 1.9, "unit": "µM"},
      {"measurement": "IC50", "setting": "hERG(DOF)", "value": "> 10", "unit": "µM"},
      {"measurement": "melting point", "value": 257.8, "unit": "°C"},
      {"measurement": "(ii) % OCR after cccp", "setting": "[3]", "value": "196.1% and 131.0%"}
    ]},
    {"smiles": "Cc1c(-c2ccc3nc(-c4ccccc4)cn3c2)[nH]c2ccccc2c1=O", "note": "[Compound 4]", "values": [
      {"measurement": "IC50", "setting": "[1]", "value": "> 100", "unit": "µM"},
      {"measurement": "melting point", "value": 337.2, "unit": "°C"},
      {"measurement": "(ii) % OCR after cccp", "setting": "[3]", "value": 144.1, "unit": "%"}
    ]},
    {"smiles": "Cc1c(-c2ccc3nc(-c4cccc(OC(F)(F)F)c4)cn3c2)[nH]c2ccccc2c1=O", "note": "[Compound 5]", "values": [
      {"measurement": "IC50", "setting": "[1]", "value": "> 100", "unit": "µM"},
      {"measurement": "IC50", "setting": "rCaCH", "value": "> 10", "unit": "µM"},
      {"measurement": "IC50", "setting": "rNaCH", "value": 3.8, "unit": "µM"},
      {"measurement": "IC50", "setting": "hERG(DOF)", "value": "> 10", "unit": "µM"},
      {"measurement": "melting point", "value": 229.9, "unit": "°C"},
      {"measurement": "(ii) % OCR after cccp", "setting": "[3]", "value": 159.3, "unit": "%"}
    ]},
    {"smiles": "CCc1nc2ccc(-c3[nH]c4ccccc4c(=O)c3C)cn2c1C(=O)NCc1ccc(OC(F)(F)F)cc1", "note": "[Compound 7]", "values": [
      {"measurement": "Mitotoxicity Score", "setting": "[2]", "value": "negative"},
      {"measurement": "(ii) % OCR after cccp", "setting": "[3]", "value": 110.6, "unit": "%"}
    ]},
    {"smiles": "Cc1c(-c2ccc3cc(-c4cccc(OC(F)(F)F)c4)nn3c2)[nH]c2ccccc2c1=O", "note": "[Compound 8]", "values": [
      {"measurement": "Mitotoxicity Score", "setting": "[2]", "value": "positive"},
      {"measurement": "IC50", "setting": "[2]; galactose medium, read-out: IC50, gal", "value": 10.8, "unit": "µM"},
      {"measurement": "IC50", "setting": "[2]; glucose medium, read-out: IC50, glu", "value": "≥ 200", "unit": "µM"},
      {"measurement": "(ii) % OCR after cccp", "setting": "[3]", "value": 93.125, "unit": "%"}
    ]}
  ]
}
